Results as given in BindingDB's records for patent US10556914 (ABBVIE INC.; ABBVIE DEUTSCHLAND GMBH & CO. KG, 2020).

Molecular target: Gamma-aminobutyric acid type B receptor subunit 1/2 (UniProt O88871+Q9Z0U4)
Assay: Binding Assay
Method: The samples were incubated at room temperature for 60 minutes on a shaker. The incubation was stopped by rapid vacuum filtration over glass-fiber filter plates (UniFilter-96 well, GF/B membrane plates, PerkinElmer) using a 96-well plate harvester (TOMTEK Harvester). The UniFilter plate was washed five times with ice-cold wash buffer (50 mM Tris-HCl buffer, pH 7.7, 10 mM MgCl2, and 100 mM NaCl. After filtration the plate was dried for 90 minutes at 55° C. The plates were closed on the bottom with black sealing membranes, and liquid scintillation cocktail (35 μL, Betaplate Scint, PerkinElmer) was added to each well. After sealing the top of the plate, an additional incubation step of 90 minutes at room temperature followed before measuring the plate. The amount of membrane-bound [35S]GTPgS was measured using a 96-well plate reader (Microbeta , PerkinElmer).

Gamma-aminobutyric acid type B receptor subunit 1/2, sequence (Q9Z0U4 whole entry): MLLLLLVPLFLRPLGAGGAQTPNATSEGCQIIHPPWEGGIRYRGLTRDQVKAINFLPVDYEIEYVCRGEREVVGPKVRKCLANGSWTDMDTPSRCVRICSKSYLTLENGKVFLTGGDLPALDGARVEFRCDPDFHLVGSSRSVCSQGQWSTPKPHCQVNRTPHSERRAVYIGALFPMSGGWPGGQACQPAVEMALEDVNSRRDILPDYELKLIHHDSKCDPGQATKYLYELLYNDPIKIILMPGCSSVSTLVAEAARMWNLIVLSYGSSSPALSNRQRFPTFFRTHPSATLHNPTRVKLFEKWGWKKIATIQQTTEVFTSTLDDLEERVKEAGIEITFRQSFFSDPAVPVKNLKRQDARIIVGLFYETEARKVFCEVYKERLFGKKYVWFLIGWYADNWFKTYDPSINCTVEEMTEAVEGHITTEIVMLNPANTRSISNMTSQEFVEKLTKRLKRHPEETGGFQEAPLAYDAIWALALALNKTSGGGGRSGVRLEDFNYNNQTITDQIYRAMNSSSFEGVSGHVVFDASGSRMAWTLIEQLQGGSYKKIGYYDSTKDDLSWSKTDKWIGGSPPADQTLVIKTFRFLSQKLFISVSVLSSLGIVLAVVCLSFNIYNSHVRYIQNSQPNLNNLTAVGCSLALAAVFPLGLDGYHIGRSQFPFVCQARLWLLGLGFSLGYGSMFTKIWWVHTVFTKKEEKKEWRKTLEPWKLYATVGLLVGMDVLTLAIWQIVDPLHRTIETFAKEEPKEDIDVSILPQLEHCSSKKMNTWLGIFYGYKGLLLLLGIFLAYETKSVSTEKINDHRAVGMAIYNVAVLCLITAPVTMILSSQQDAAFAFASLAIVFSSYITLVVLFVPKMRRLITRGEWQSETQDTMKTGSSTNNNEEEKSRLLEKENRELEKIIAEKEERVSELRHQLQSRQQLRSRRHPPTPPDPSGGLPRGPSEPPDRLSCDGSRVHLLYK
Gamma-aminobutyric acid type B receptor subunit 1/2, sequence (O88871 whole entry): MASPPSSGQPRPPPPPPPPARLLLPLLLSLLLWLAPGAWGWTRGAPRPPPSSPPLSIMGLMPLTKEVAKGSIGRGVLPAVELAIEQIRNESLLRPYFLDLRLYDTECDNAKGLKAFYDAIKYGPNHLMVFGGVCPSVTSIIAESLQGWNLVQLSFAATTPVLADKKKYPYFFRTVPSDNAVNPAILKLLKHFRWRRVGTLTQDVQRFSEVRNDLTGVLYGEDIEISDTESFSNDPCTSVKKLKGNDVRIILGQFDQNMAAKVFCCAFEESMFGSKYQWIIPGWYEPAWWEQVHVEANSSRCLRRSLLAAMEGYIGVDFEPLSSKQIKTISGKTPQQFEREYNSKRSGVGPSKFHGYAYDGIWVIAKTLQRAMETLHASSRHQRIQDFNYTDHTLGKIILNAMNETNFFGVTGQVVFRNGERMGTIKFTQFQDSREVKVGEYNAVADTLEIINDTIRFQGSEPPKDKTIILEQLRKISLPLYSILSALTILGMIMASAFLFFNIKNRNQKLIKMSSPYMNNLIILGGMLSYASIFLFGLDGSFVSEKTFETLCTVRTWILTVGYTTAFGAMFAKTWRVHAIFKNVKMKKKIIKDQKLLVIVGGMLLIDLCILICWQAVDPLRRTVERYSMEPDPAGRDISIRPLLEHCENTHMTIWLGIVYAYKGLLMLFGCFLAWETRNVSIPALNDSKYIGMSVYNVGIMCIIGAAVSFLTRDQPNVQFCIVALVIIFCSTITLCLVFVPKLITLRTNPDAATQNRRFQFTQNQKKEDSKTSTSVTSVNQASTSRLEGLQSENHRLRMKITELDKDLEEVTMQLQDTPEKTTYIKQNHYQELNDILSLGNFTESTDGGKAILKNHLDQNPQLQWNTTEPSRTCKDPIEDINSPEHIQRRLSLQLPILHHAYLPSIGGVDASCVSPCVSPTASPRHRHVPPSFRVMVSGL

COc1ccc(OC)c(-c2nn(Cc3ccc(Cl)cc3)c(=O)c3c(C(C)C)noc23)c1 [US10556914, Example 13]
EC50: 3.54 µM

COc1c(NC(C)=O)cccc1-c1nn(C(C)c2ccc(Cl)cc2)c(=O)c2c(C)noc12 (stereo not drawn) [US10556914, Example 33]
EC50: > 10 µM

CC(=O)Nc1cccc(-c2nn(Cc3ccc(Cl)cc3)c(=O)c3c(C(C)C)noc23)c1 [US10556914, Example 96]
EC50: 2.59 µM
